# pIC50: −log10 of the molar value.
# Molecular target: T1, human Fatty Acid Synthase (Homo sapiens, UniProt P49327)
# T1 construct: made in house
# Test: Human FAS enzyme assay (decrease in NADPH fluorescence)
# Type: biochemical
# Conditions: % inhibition at a concentration of 100 micromolar
# Outline: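 Readout: decrease in NADPH fluorescence (340 nm ex, 460 nm em) after 60 min at RT, background-subtracted against a read taken before substrate. Substrate mix contained 500 μM malonyl-CoA and 150 μM acetyl-CoA. It was added after 15 min enzyme (0.4 μg in-house human FAS)–compound–NADPH preincubation in Tris pH 7.5 buffer; % inhibition was fitted to IC50.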
# T1 sequence (P49327 whole entry): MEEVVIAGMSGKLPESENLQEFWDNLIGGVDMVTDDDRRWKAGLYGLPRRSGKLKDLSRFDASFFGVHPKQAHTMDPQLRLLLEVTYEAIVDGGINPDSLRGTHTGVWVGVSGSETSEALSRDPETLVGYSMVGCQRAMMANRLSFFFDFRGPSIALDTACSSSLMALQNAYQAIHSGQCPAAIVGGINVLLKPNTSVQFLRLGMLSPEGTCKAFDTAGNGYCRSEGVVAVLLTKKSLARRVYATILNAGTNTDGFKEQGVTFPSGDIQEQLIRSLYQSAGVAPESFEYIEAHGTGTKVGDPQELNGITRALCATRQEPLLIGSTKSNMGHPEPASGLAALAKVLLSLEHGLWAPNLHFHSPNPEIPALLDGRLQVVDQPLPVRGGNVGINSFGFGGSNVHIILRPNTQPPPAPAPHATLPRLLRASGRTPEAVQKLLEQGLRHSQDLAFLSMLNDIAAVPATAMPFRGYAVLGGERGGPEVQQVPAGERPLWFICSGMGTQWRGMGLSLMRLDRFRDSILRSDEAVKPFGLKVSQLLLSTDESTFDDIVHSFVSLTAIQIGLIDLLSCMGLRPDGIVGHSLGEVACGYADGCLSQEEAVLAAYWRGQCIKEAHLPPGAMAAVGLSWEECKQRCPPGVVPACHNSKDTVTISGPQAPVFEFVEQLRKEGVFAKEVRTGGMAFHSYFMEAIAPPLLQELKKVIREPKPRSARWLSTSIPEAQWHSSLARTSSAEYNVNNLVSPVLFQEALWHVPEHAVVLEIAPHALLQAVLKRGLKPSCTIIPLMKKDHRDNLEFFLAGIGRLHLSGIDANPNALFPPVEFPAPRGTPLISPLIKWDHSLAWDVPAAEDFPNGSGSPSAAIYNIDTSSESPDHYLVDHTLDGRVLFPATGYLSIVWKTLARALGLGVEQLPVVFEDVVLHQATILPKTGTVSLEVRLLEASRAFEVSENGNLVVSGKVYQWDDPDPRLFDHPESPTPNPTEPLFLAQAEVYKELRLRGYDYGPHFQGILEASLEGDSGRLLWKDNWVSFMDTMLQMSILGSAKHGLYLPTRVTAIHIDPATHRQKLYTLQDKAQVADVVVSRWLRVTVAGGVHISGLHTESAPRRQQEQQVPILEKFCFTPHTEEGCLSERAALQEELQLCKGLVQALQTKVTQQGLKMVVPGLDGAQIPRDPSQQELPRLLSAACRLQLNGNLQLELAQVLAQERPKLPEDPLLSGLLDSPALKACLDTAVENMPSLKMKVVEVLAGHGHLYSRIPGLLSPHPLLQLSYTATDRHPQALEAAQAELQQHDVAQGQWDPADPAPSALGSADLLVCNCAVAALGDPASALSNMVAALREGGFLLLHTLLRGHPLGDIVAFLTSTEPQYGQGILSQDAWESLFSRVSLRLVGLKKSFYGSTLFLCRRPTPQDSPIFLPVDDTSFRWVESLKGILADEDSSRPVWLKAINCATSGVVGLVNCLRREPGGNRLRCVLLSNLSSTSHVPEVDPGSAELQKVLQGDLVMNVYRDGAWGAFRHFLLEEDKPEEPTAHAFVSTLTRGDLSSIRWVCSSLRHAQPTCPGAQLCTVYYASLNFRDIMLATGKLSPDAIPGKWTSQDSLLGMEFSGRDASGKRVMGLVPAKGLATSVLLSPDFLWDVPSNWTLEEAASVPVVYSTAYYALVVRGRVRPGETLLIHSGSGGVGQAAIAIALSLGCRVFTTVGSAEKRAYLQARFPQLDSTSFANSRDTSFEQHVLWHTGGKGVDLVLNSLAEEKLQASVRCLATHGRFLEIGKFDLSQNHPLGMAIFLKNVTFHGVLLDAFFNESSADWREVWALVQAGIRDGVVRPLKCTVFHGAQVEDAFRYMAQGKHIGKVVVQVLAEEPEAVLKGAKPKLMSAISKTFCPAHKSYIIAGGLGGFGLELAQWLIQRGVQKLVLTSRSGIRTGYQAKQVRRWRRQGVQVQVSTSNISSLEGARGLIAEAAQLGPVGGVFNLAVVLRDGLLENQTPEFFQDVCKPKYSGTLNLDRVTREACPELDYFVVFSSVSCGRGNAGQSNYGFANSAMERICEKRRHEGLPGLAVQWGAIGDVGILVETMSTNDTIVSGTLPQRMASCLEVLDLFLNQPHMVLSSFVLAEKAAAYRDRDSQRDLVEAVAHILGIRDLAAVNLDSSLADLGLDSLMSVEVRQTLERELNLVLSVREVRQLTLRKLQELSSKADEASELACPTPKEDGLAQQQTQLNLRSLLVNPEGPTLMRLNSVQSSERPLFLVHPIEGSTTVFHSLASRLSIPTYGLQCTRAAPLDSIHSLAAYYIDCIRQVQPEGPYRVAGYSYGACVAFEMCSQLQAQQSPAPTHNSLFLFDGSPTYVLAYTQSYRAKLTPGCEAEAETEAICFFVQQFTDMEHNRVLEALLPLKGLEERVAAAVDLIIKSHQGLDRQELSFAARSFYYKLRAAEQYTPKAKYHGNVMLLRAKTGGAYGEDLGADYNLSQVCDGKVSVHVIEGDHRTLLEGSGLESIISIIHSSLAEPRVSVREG
row,SMILES,inhibition at 100 µM [%]
1,"Cc1ccc(C(=O)N2CCC(c3ccc(Oc4ccccn4)cc3)CC2)cc1NS(C)(=O)=O [Example 187, N-[2-methyl-5-[4-(4-pyridin-2-yloxyphenyl)piperidine-1-carbonyl]phenyl]methanesulfonamide]",100
2,"Cc1ccc(C(=O)N2CCC(c3ccc(CN4CCOCC4)cc3)CC2)cc1NS(C)(=O)=O [Example 243, N-[2-methyl-5-[4-[4-(morpholin-4-ylmethyl)phenyl]piperidine-1-carbonyl]phenyl]methanesulfonamide]",69.9
3,"CNC(=O)Cc1ccc(C2CCN(C(=O)c3ccc(C)c(NS(C)(=O)=O)c3)CC2)cc1 [Example 240, 2-[4-[1-(3-methanesulfonamido-4-methylbenzoyl)piperidin-4-yl]phenyl]-N-methylacetamide]",63.9
4,"Cc1cc(C2CCN(C(=O)c3ccc(C)c(NS(C)(=O)=O)c3)CC2)ccc1C#N [Example 217, N-[5-[4-(4-cyano-3-methylphenyl)piperidine-1-carbonyl]-2-methylphenyl]methane-sulfonamide]",60
5,"C=CS(=O)(=O)Nc1cc(C(=O)N2CCC(c3ccc(C(N)=O)cc3)CC2)ccc1C [Example 104, 4-[1-[3-(ethenylsulfonylamino)-4-methyl-benzoyl]-4-piperidyl]benzamide]",76
6,"Cc1ccc(C(=O)N2CCC(c3ccc(C#N)cc3)CC2)cc1NS(=O)(=O)c1ccccc1C(=O)NC(C)C [Example 208, 2-[[5-[4-(4-cyanophenyl)piperidine-1-carbonyl]-2-methylphenyl]sulfamoyl]-N-propan-2-ylbenzamide]",75
7,"Cc1ccc(C(=O)N2CCC(c3ccc(CNS(=O)(=O)CC(C)C)cc3)CC2)cc1NS(C)(=O)=O [Example 238, N-[[4-[1-(3-methanesulfonamido-4-methylbenzoyl)piperidin-4-yl]phenyl]methyl]-2-methylpropane-1-sulfonamide]",81.3
8,"Cc1ccc(C(=O)N2CCC(c3ccc(C#N)cc3)CC2)cc1NS(=O)(=O)c1ccc(=O)[nH]c1 [Example 102, N-[5-[4-(4-cyanophenyl)piperidine-1-carbonyl]-2-methyl-phenyl]-6-oxo-1H-pyridine-3-sulfonamide]",81
9,"Cc1ccc(NS(=O)(=O)CC2CCCC2)cc1C(=O)N1CCC(c2ccc(C#N)cc2)CC1 [Example 43, N-[3-[4-(4-cyanophenyl)piperidine-1-carbonyl]-4-methyl-phenyl]-1-cyclopentyl-methanesulfonamide]",93
10,"N#Cc1ccc(C2CCN(C(=O)c3ccc(Cl)c(NS(=O)(=O)c4ccc(Cl)cc4)c3)CC2)cc1 [Example 192, 4-chloro-N-[2-chloro-5-[4-(4-cyanophenyl)piperidine-1-carbonyl]phenyl]benzene-sulfonamide]",67
11,"CS(=O)(=O)Nc1cc(C(=O)N2CCC(c3ccc(C#N)cc3)CC2)ccc1S(C)(=O)=O [Example 210, N-[5-[4-(4-cyanophenyl)piperidine-1-carbonyl]-2-methylsulfonylphenyl]methanesulfonamide]",91
12,"Cc1ccc(C(=O)N2CCC(O)(c3ccc(Br)cc3)CC2)cc1NS(C)(=O)=O [Example 200, N-[5-[4-(4-bromophenyl)-4-hydroxypiperidine-1-carbonyl]-2-methylphenyl]methane-sulfonamide]",48
13,"Cc1ccc(NS(=O)(=O)Cc2ccc(S(C)(=O)=O)cc2)cc1C(=O)N1CCC(c2ccc(C#N)cc2)CC1 [Example 54, N-[3-[4-(4-cyanophenyl)piperidine-1-carbonyl]-4-methyl-phenyl]-1-(4-methylsulfonylphenyl)methanesulfonamide]",84
14,"CC(=O)Nc1ccc(S(=O)(=O)Nc2ccc(C)c(C(=O)N3CCC(c4ccc(C#N)cc4)CC3)c2)cc1 [Example 48, N-[4-[[3-[4-(4-cyanophenyl)piperidine-1-carbonyl]-4-methyl-phenyl]sulfamoyl]phenyl]acetamide]",84
15,"COCCS(=O)(=O)Nc1cc(C(=O)N2CCC(c3ccc(C#N)cc3)CC2)ccc1C [Example 105, N-[5-[4-(4-cyanophenyl)piperidine-1-carbonyl]-2-methyl-phenyl]-2-methoxy-ethanesulfonamide]",89
16,"Cc1ccc(NS(=O)(=O)c2ccc(Cl)s2)cc1C(=O)N1CCC(c2ccc(C#N)cc2)CC1 [Example 45, 5-chloro-N-[3-[4-(4-cyanophenyl)piperidine-1-carbonyl]-4-methyl-phenyl]thiophene-2-sulfonamide]",83
17,"C=CCS(=O)(=O)Nc1cc(C(=O)N2CCC(c3ccc(C#N)cc3)CC2)ccc1C [Example 146, N-(5-(4-(4-cyanophenyl)piperidine-1-carbonyl)-2-methylphenyl)prop-2-ene-1-sulfonamide]",90
18,"N#Cc1ccc(C2CCN(C(=O)c3cccc(NS(=O)(=O)Cc4ccccc4)c3)CC2)cc1 [Example 66, N-[3-[4-(4-cyanophenyl)piperidine-1-carbonyl]phenyl]-1-phenyl-methanesulfonamide]",80
19,"Cc1ccc(C(=O)N2CCC(c3ccc(C#N)cc3)CC2)cc1NS(=O)(=O)Cc1cccc(F)c1 [Example 27, N-[5-[4-(4-cyanophenyl)piperidine-1-carbonyl]-2-methyl-phenyl]-1-(3-fluorophenyl)methanesulfonamide]",96
20,"Cc1ccc(C(=O)N2CCC(c3ccc(C#N)cc3)CC2)cc1NS(=O)(=O)C1CC1 [Example 14, N-[5-[4-(4-cyanophenyl)piperidine-1-carbonyl]-2-methyl-phenyl]cyclopropanesulfonamide]",89
21,"CCC1(CS(=O)(=O)Nc2cc(C(=O)N3CCC(c4ccc(C#N)cc4)CC3)ccc2C)NC(=O)NC1=O (centres unmarked) [Example 148, N-[5-[4-(4-cyanophenyl)piperidine-1-carbonyl]-2-methyl-phenyl]-1-(4-ethyl-2,5-dioxo-imidazolidin-4-yl)methanesulfonamide]",100
22,"Cc1ccc(C(=O)N2CCC(c3ccc(C(N)=NO)cc3)CC2)cc1NS(C)(=O)=O [Example 214, N′-hydroxy-4-[1-(3-methanesulfonamido-4-methylbenzoyl)piperidin-4-yl]benzene-carboximidamide]",85
23,"Cc1ccc(C(=O)N2CCC(c3ccc(C#N)cc3)CC2)cc1NS(=O)(=O)C(C)C [Example 128, N-[5-[4-(4-cyanophenyl)piperidine-1-carbonyl]-2-methyl-phenyl]propane-2-sulfonamide]",96

# Same assay, conditions: compounds excluded from the claims by proviso
row,SMILES,IC50s in the range of about 0.001 μM to about 30 μM
1,C#Cc1cccc(C2CCN(C(=O)c3ccc(C)c(NS(C)(=O)=O)c3)CC2)c1 [N-[5-[4-(3-ethynylphenyl)piperidine-1-carbonyl]-2-methylphenyl]methanesulfonamide],do not have IC50s in the range of about 0.001 μM to about 30 μM
2,CS(=O)(=O)Nc1cc(C(=O)N2CCC(c3ccc(C#N)cc3)CC2)ccc1F [N-[5-[4-(4-cyanophenyl)piperidine-1-carbonyl]-2-fluorophenyl]methanesulfonamide],do not have IC50s in the range of about 0.001 μM to about 30 μM

# Same assay, conditions: unit inferred
row,SMILES,pIC50
1,"Cc1ccc(C(=O)N2CCC(c3ccc(C#CC(C)(C)O)cc3)CC2)cc1NS(C)(=O)=O [Example 252, N-[5-[4-[4-(3-hydroxy-3-methylbut-1-ynyl)phenyl]piperidine-1-carbonyl]-2-methylphenyl]methanesulfonamide]",5.48

# From patent US20090105305A1, “Therapeutic Agents - 550” (AstraZeneca AB, priority 2006, published 2009)
